Assay [1] has as its system Mus musculus. Description: Antidepressant activity in ip dosed mouse assessed as duration of locomotor activity. The class given is functional.
Assay [2] concerns Rattus norvegicus. Description: Effect on behavioural activity in rat assessed as cocaine-induced lever response at 5 mg/kg, ip pretreated with cocaine for 15 mins by drug-discrimination studies. The class given is functional. To be noted: route intraperitoneal.
The test system of assay [3] is Rattus norvegicus. Description: Effect on behavioural activity in rat assessed as cocaine-induced lever response at 25 mg/kg, ip pretreated with cocaine for 15 mins by drug-discrimination studies. The class given is functional. Conditions: route intraperitoneal.
The test system of assay [4] is Mus musculus. Description: Antidepressant activity in ip dosed mouse assessed as stimulation of locomotor activity relative to cocaine. Type of assay: functional.
Assay [5] deals with Rattus norvegicus. The experiment in a line: Effect on behavioural activity in ip dosed rat assessed as cocaine-induced lever response pretreated with cocaine by drug-discrimination studies. The class given is functional.
Assay [6] concerns Mus musculus. The experiment in a line: Antidepressant activity in ip dosed mouse assessed as stimulation of locomotor activity. The class given is functional.
The test system of assay [7] is Rattus norvegicus. Description: Effect on behavioural activity in rat assessed as cocaine-induced lever response at 2.5 mg/kg, ip pretreated with cocaine for 15 mins by drug-discrimination studies. Type of assay: functional. Conditions: route intraperitoneal.
Assay [8] concerns Mus musculus. Description: Antidepressant activity in ip dosed mouse assessed as time to reach peak stimulation of locomotor activity. The class given is functional.
Assay [9] deals with Rattus norvegicus. The experiment in a line: Effect on behavioural activity in rat assessed as cocaine-induced lever response at 10 mg/kg, ip pretreated with cocaine for 15 mins by drug-discrimination studies. Type of assay: functional. To be noted: route intraperitoneal.
Assay [10] relates to Rattus norvegicus. Description: Effect on behavioural activity in po dosed rat assessed as cocaine-induced lever response pretreated with cocaine by drug-discrimination studies. The class given is functional.
Assay [11] deals with Sodium-dependent serotonin transporter (Homo sapiens, UniProt P31645). The experiment in a line: biochemical. The class given is cell-based, HEK293.
Assay [12] deals with Rattus norvegicus. Description: Effect on behavioural activity in rat assessed as cocaine-induced lever response at 10 mg/kg, po pretreated with cocaine for 180 mins by drug-discrimination studies. Type of assay: functional.
In assay [13] the test system is Rattus norvegicus. Description: Effect on behavioural activity in rat assessed as cocaine-induced lever response at 10 mg/kg, po pretreated with cocaine for 360 mins by drug-discrimination studies. The class given is functional.
The test system of assay [14] is Rattus norvegicus. The experiment in a line: Effect on behavioural activity in rat assessed as cocaine-induced lever response at 2.5 mg/kg, po pretreated with cocaine for 180 mins by drug-discrimination studies. Type of assay: functional.
In assay [15] the test system is Rattus norvegicus. The experiment in a line: Effect on behavioural activity in rat assessed as cocaine-induced lever response at 5 mg/kg, po pretreated with cocaine for 360 mins by drug-discrimination studies. The class given is functional.
The subject of assay [16] is Rattus norvegicus. Description: Effect on behavioural activity in rat assessed as cocaine-induced lever response at 2.5 mg/kg, po pretreated with cocaine for 45 mins by drug-discrimination studies. Type of assay: functional.
The test system of assay [17] is Rattus norvegicus. The experiment in a line: Effect on behavioural activity in rat assessed as cocaine-induced lever response at 2.5 mg/kg, po pretreated with cocaine for 360 mins by drug-discrimination studies. Type of assay: functional.
Assay [18] relates to Rattus norvegicus. Description: Effect on behavioural activity in rat assessed as cocaine-induced lever response at 10 mg/kg, po pretreated with cocaine for 90 mins by drug-discrimination studies. The class given is functional.
Assay [19] deals with Rattus norvegicus. Description: Effect on behavioural activity in rat assessed as cocaine-induced lever response at 2.5 mg/kg, po pretreated with cocaine for 90 mins by drug-discrimination studies. Type of assay: functional.
In assay [20] the test system is Rattus norvegicus. The experiment in a line: Effect on behavioural activity in rat assessed as cocaine-induced lever response at 5 mg/kg, po pretreated with cocaine for 180 mins by drug-discrimination studies. The class given is functional.
Assay [21] deals with Rattus norvegicus. Description: Effect on behavioural activity in rat assessed as cocaine-induced lever response at 5 mg/kg, po pretreated with cocaine for 45 mins by drug-discrimination studies. The class given is functional.
In assay [22] the target is Sodium-dependent noradrenaline transporter (Homo sapiens, UniProt P23975). The experiment in a line: Displacement of [125I]RTI55 from cloned human NET expressed in HEK293 cells. The class given is cell-based. (Loss of bound radioactivity is the signal in a displacement assay; it reports binding, not function.)
Assay [23] addresses Sodium-dependent dopamine transporter (Homo sapiens, UniProt Q01959). The experiment in a line: Displacement of [125I]RTI55 from cloned human DAT expressed in HEK293 cells. Type of assay: cell-based.
For assay [24], the system named is Rattus norvegicus. Description: Effect on behavioural activity in rat assessed as cocaine-induced lever response at 50 mg/kg, po pretreated with cocaine for 90 mins by drug-discrimination studies. The class given is functional.
Assay [25] deals with Rattus norvegicus. Description: Effect on behavioural activity in rat assessed as cocaine-induced lever response at 2.5 mg/kg, ip pretreated with cocaine for 30 mins by drug-discrimination studies. The class given is functional. To be noted: route intraperitoneal.
Assay [26] concerns Rattus norvegicus. Description: Effect on behavioural activity in rat assessed as cocaine-induced lever response at 10 mg/kg, ip pretreated with cocaine for 30 mins by drug-discrimination studies. The class given is functional. To be noted: route intraperitoneal.
The subject of assay [27] is Rattus norvegicus. The experiment in a line: Effect on behavioural activity in rat assessed as cocaine-induced lever response at 25 mg/kg, po pretreated with cocaine for 360 mins by drug-discrimination studies. Type of assay: functional.
Assay [28] has as its system Rattus norvegicus. The experiment in a line: Effect on behavioural activity in rat assessed as cocaine-induced lever response at 5 mg/kg, po pretreated with cocaine for 90 mins by drug-discrimination studies. Type of assay: functional.
Assay [29] has as its system Rattus norvegicus. The experiment in a line: Effect on behavioural activity in rat assessed as cocaine-induced lever response at 50 mg/kg, po pretreated with cocaine for 360 mins by drug-discrimination studies. Type of assay: functional.
Assay [30] concerns Rattus norvegicus. Description: Effect on behavioural activity in rat assessed as cocaine-induced lever response at 5 mg/kg, ip pretreated with cocaine for 30 mins by drug-discrimination studies. Conditions: route intraperitoneal. Type of assay: functional.
Assay [31] has as its system Rattus norvegicus. The experiment in a line: Effect on behavioural activity in rat assessed as cocaine-induced lever response at 50 mg/kg, po pretreated with cocaine for 180 mins by drug-discrimination studies. The class given is functional.
The subject of assay [32] is Rattus norvegicus. The experiment in a line: Effect on behavioural activity in rat assessed as cocaine-induced lever response at 50 mg/kg, po pretreated with cocaine for 45 mins by drug-discrimination studies. The class given is functional.
The subject of assay [33] is Rattus norvegicus. The experiment in a line: Effect on behavioural activity in rat assessed as cocaine-induced lever response at 25 mg/kg, po pretreated with cocaine for 90 mins by drug-discrimination studies. The class given is functional.
In assay [34] the test system is Rattus norvegicus. Description: Effect on behavioural activity in rat assessed as cocaine-induced lever response at 25 mg/kg, ip pretreated with cocaine for 30 mins by drug-discrimination studies. To be noted: route intraperitoneal. The class given is functional.
Assay [35] concerns Rattus norvegicus. Description: Effect on behavioural activity in rat assessed as cocaine-induced lever response at 25 mg/kg, po pretreated with cocaine for 45 mins by drug-discrimination studies. The class given is functional.
Assay [36] has as its system Rattus norvegicus. Description: Effect on behavioural activity in rat assessed as cocaine-induced lever response at 25 mg/kg, po pretreated with cocaine for 180 mins by drug-discrimination studies. The class given is functional.
Assay [37] deals with Rattus norvegicus. The experiment in a line: Effect on behavioural activity in rat assessed as cocaine-induced lever response at 10 mg/kg, po pretreated with cocaine for 45 mins by drug-discrimination studies. Type of assay: functional.

This note sets out measurements from ChEMBL document CHEMBL1156106 (J Med Chem, 2009).

Sequence of Sodium-dependent serotonin transporter (P31645 whole entry): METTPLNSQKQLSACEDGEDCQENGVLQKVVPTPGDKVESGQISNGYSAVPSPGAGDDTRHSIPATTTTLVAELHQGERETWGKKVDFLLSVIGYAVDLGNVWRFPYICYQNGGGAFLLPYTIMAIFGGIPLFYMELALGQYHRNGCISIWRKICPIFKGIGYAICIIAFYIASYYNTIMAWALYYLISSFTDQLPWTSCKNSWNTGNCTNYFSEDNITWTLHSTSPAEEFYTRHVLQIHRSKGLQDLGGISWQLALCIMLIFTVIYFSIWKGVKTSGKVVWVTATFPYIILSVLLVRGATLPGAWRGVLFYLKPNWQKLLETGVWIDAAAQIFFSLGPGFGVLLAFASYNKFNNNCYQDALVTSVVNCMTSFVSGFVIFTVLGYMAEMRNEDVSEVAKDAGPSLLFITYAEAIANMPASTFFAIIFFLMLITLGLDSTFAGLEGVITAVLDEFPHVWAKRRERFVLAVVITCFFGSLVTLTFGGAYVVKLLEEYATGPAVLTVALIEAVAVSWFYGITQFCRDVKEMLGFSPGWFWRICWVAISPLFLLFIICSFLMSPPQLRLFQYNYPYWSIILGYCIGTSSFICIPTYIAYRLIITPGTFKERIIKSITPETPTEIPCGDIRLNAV
Sequence of Sodium-dependent dopamine transporter (Q01959 whole entry): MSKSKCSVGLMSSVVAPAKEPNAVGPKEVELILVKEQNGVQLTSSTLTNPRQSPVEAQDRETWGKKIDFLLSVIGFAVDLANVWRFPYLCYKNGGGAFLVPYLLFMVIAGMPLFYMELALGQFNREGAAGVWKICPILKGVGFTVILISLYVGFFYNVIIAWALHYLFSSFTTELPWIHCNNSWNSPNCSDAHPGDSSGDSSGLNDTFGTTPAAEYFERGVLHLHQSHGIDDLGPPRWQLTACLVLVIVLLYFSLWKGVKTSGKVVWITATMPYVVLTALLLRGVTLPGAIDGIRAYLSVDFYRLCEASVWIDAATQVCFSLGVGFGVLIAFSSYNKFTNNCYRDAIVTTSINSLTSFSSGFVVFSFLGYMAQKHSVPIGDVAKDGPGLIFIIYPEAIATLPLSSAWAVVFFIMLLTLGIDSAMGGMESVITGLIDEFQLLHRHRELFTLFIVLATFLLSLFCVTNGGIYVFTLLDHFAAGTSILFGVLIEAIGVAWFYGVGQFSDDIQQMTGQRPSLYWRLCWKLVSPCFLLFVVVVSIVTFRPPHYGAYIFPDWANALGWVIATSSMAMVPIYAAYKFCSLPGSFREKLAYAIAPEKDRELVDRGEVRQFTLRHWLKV
Sequence of Sodium-dependent noradrenaline transporter (P23975 whole entry): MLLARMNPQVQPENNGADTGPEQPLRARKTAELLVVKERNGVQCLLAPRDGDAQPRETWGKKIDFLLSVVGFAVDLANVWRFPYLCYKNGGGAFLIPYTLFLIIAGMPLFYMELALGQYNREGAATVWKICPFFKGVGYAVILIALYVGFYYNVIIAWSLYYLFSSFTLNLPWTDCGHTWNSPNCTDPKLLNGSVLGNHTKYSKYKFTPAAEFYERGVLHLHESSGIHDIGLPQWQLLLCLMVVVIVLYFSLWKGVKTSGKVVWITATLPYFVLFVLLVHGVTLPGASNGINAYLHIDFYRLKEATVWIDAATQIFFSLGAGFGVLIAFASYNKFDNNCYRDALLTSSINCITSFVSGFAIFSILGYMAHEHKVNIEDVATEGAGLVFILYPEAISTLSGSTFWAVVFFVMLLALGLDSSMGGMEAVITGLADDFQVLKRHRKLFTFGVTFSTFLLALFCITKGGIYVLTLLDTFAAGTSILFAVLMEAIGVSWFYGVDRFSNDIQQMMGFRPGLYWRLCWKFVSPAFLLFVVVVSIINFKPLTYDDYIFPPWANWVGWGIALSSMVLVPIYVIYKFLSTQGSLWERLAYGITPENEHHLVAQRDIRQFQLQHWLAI

Regarding `CCC(NC(C)(C)C)C(=O)c1cccc(Cl)c1` (stereo unspecified), in the assay with Mus musculus [1], the Time is 360 min. Moreover, the Activity was 33.4% in the assay on Rattus norvegicus [2], 100% with Rattus norvegicus [3], 62% with Mus musculus [4] and 0.6% in the assay with Rattus norvegicus [7]. Further, the ED50 in the assay with Rattus norvegicus [5] is 12.2 mg/kg; in the assay on Mus musculus [6], 18.6 mg/kg. In addition, the “Time to peak locomotor stimulation” value with Mus musculus [8] was 0 min.
With `CC(C(=O)c1cccc(Cl)c1)N(C)C` (stereo unspecified), the Activity in the assay on Rattus norvegicus [9] amounted to 83.2%; in the assay with Rattus norvegicus [12] it was 33%; in the assay on Rattus norvegicus [13], 18%; in the assay with Rattus norvegicus [14], 33%; in the assay with Rattus norvegicus [2] it was 83.3%; in the assay on Rattus norvegicus [15] it was 0%. Further, the Activity with Rattus norvegicus [3] is 100%; with Rattus norvegicus [16], 19%; in the assay on Mus musculus [4], 64%; in the assay on Rattus norvegicus [17] it was 0%; in the assay on Rattus norvegicus [18], 100%; in the assay with Rattus norvegicus [7] it was 0%. Moreover, the Activity is recorded as 0% in the assay on Rattus norvegicus [19], 0% in the assay with Rattus norvegicus [20] and 38% in the assay on Rattus norvegicus [21]. The ED50 in the assay on Rattus norvegicus [10] was found to be 5.3 mg/kg; in the assay with Rattus norvegicus [5], 5.9 mg/kg; in the assay on Mus musculus [6] it was 9.3 mg/kg. In assay [11], this compound yielded a Ki above 10 µM. Moreover, the Time with Mus musculus [1] was found to be 180 min. For the same compound, the “Time to peak locomotor stimulation” value with Mus musculus [8] came out at 90 min.
In the case of `CC(CNC(C)(C)C)C(=O)c1cccc(Cl)c1` (stereo unspecified), the Ki in [22], in assay [11] and in assay [23] was above 10 µM throughout.
With `CCCCC(NC(C)(C)C)C(=O)c1cccc(Cl)c1` (stereo unspecified), the Activity is recorded as 17% in the assay with Rattus norvegicus [24]; 0% in the assay with Rattus norvegicus [25]; 66.6% in the assay on Rattus norvegicus [26]; 29% with Rattus norvegicus [12]; 0% in the assay on Rattus norvegicus [13]; 0% in the assay with Rattus norvegicus [27]. The Activity amounted to 0% with Rattus norvegicus [15]; 0% with Rattus norvegicus [28]; 0% in the assay with Rattus norvegicus [29]; 17.2% in the assay with Rattus norvegicus [30]; 17% in the assay with Rattus norvegicus [31]; 136% with Mus musculus [4]. For the same compound, the Activity in the assay on Rattus norvegicus [32] was determined as 83%; with Rattus norvegicus [33] it was 0%; with Rattus norvegicus [34], 100%; with Rattus norvegicus [18], 0%; in the assay with Rattus norvegicus [35] it was 0%; in the assay with Rattus norvegicus [36], 0%. In addition, the Activity is on record as 26% in the assay on Rattus norvegicus [20], 17% with Rattus norvegicus [21] and 0% with Rattus norvegicus [37]. The ED50 turned out to be 46.9 mg/kg with Rattus norvegicus [10], 10 mg/kg with Rattus norvegicus [5] and 10.2 mg/kg with Mus musculus [6]. Further, the Ki in assay [11] was above 10 µM. Further, the Time in the assay with Mus musculus [1] is given as 40 min. Moreover, the “Time to peak locomotor stimulation” value with Mus musculus [8] came out at 0 min.
Take `CC1C(=O)c2cc(Cl)ccc2CN1C(C)(C)C` (stereo unspecified): the Ki in assay [22], in assay [11] and in assay [23] was above 10 µM in each case.
With `Cc1cccc(C(=O)C(C)NC(C)(C)C)c1` (stereo unspecified), the Ki in [22] and in [11] was above 10 µM in each case. For the same compound, the Time in the assay with Mus musculus [1] is recorded as 50 min. Moreover, in the assay with Mus musculus [4], the Activity is 76%. Also, in the assay on Mus musculus [8], the “Time to peak locomotor stimulation” value is listed as 10 min.
Take `CC(NC(C)(C)C)C(=O)c1cccs1` (stereo unspecified): the Ki in [22], in assay [11] and in assay [23] was above 10 µM each time.
Consider `CC(NC(C)(C)C)C(=O)c1ccccc1` (stereo unspecified), for which the Activity in the assay with Rattus norvegicus [9] is recorded as 83.3%; in the assay with Rattus norvegicus [24], 33%; in the assay on Rattus norvegicus [12] it was 3%; with Rattus norvegicus [13], 0%; with Rattus norvegicus [27] it was 34%; with Rattus norvegicus [14], 0%. In addition, the Activity is listed as 32.8% in the assay with Rattus norvegicus [2]; 0% in the assay with Rattus norvegicus [15]; 0% in the assay with Rattus norvegicus [28]; 4% in the assay on Rattus norvegicus [29]; 83.4% in the assay on Rattus norvegicus [3]; 6% in the assay on Rattus norvegicus [16]. In addition, the Activity stood at 50% with Rattus norvegicus [31]; 95% in the assay on Mus musculus [4]; 83% in the assay with Rattus norvegicus [32]; 0% in the assay with Rattus norvegicus [17]; 33% in the assay on Rattus norvegicus [33]; 0% in the assay on Rattus norvegicus [18]. Moreover, the Activity in the assay on Rattus norvegicus [35] was found to be 51%; in the assay with Rattus norvegicus [7], 16%; in the assay on Rattus norvegicus [19], 1%; with Rattus norvegicus [36], 20%; with Rattus norvegicus [20] it was 33%; with Rattus norvegicus [21], 0%. For the same compound, the Activity in the assay on Rattus norvegicus [37] was found to be 0%. Further, the ED50 in the assay with Rattus norvegicus [10] stood at 25.2 mg/kg; in the assay on Rattus norvegicus [5], 1 mg/kg; in the assay on Mus musculus [6], 11.2 mg/kg. Besides, the Ki in assay [11] is above 10 µM. Also, the Time in the assay on Mus musculus [1] amounted to 120 min. For the same compound, the “Time to peak locomotor stimulation” value in the assay on Mus musculus [8] stood at 0 min.

What is called ED50 is the dose at which the effect has come halfway, by size or by number of responders. Usually Ki stands for the equilibrium dissociation constant of an inhibitor or competing ligand from its target. A high value points to a looser hold on the target.
